{
  "source": "ChEMBL document CHEMBL4145458",
  "about": "“Natural compounds and combination therapy in colorectal cancer treatment” (2018)",
  "assay_type_in_all_cases": "functional",
  "key": {"[1]": {"tested_on": "Homo sapiens", "assay": "Upregulation of cleaved caspase-3 levels in malignant hepatic tissue of cancer patient at 5 g/day, po administered for 10 to 21 days by immunohistochemistry relative to control"}, "[2]": {"tested_on": "Homo sapiens", "assay": "Reduction in tumor cell proliferation in colorectal cancer patient at 0.5 to 1 g/day, po administered 8 times per day for 8 days by Ki-67 staining-based microscopic method relative to control", "set-up": "scale not given: the % may be the effect or the level left"}, "[3]": {"tested_on": "Homo sapiens", "assay": "Induction of apoptosis in tumor of colorectal cancer patient at 200 mg/day, po administered for 14 days relative to control"}, "[4]": {"tested_on": "CT26", "assay": "Antitumor activity against mouse CT26 cells implanted in BALB/c mouse at 1 mg/kg, po qd administered through oral gavage for 15 days in presence of cisplatin relative to control"}, "[5]": {"assay": "Antitumor activity against human TC118 cells xenografted in Swiss nu/nu mouse assessed as tumor growth inhibition at 150 mg/kg, ip qd for 5 days in presence of 5-FU", "conditions": "120 h, read-out: TGI"}, "[6]": {"tested_on": "Homo sapiens", "assay": "Reduction in aberrant crypt foci number in colorectal cancer patient at 4 g/day, po administered 30 days relative to control", "set-up": "scale not given: the % may be the effect or the level left"}},
  "data": [
    {"compound": "Oc1ccc(/C=C/c2cc(O)cc(O)c2)cc1", "note": "[RESVERATROL]", "values": [
      {"measurement": "Activity", "setting": "[1]", "value": 39, "unit": "%"},
      {"measurement": "Activity", "setting": "[2]", "value": 5, "unit": "%"}
    ]},
    {"compound": "C[C@H]1[C@H](OC(=O)CCC(=O)O)O[C@@H]2O[C@@]3(C)CC[C@H]4[C@H](C)CC[C@@H]1[C@@]24OO3", "note": "[ARTESUNATE]", "values": [
      {"measurement": "Activity", "setting": "[3]", "value": 13, "unit": "%"}
    ]},
    {"compound": "O=C(/C=C/c1ccc(O)cc1)c1ccc(O)cc1O", "note": "[ISOLIQUIRITIGENIN]", "values": [
      {"measurement": "Activity", "setting": "[4]", "value": 79, "unit": "%"}
    ]},
    {"compound": "CC(C)=CCC/C(C)=C/CO", "note": "[GERANIOL]", "values": [
      {"measurement": "inhibition in vivo at 150 mg/kg", "setting": "[5]", "value": "≤ 83", "unit": "%"}
    ]},
    {"compound": "COc1cc(/C=C/C(=O)CC(=O)/C=C/c2ccc(O)c(OC)c2)ccc1O", "note": "[CURCUMIN]", "values": [
      {"measurement": "Activity", "setting": "[6]", "value": 40, "unit": "%"}
    ]}
  ]
}
